Patent US20250276964A1 (Novartis AG, priority 2021, published 2025)

Target: T1, WIZ (Homo sapiens, UniProt O95785+Q96SW2)
T1 construct: expressed in transfected cells
Assay: Quantification of WIZ protein levels in HiBit tag fusion protein assay (WIZ HiBit assay in 293T cells)
Type: cell-based
Conditions: for Dmax at 25 µM / remaining activity at 25 µM: HEK-293T; for Dmax at 25 µM / % degradation of WIZ (100-Amax): 100 minus Amax at 25 uM; for Dmax at 25 µM: read-out: % degradation of WIZ (100-Amax); for remaining activity at 25 µM / WIZ Amax: DMSO-normalized, curve-fitted percentage of WIZ-HiBit remaining at 25 uM; for remaining activity at 25 µM: read-out: WIZ Amax; for DC50: WIZ HiBit assay in 293T cells, 10-point, 5-fold dilution, highest concentration 25 μM, about 18 hours, read-out: WIZ AC50
How it was run: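 293T cells stably carrying single-copy HiBit-WIZ (HSVTK promoter) treated ~18 h at 37 °C with 10-point, 5-fold dilutions, top 25 μM. Lytic HiBit luminescence read; Amax is DMSO-normalised, curve-fitted % WIZ-HiBit remaining at 25 uM.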

T1 sequence (O95785 whole entry): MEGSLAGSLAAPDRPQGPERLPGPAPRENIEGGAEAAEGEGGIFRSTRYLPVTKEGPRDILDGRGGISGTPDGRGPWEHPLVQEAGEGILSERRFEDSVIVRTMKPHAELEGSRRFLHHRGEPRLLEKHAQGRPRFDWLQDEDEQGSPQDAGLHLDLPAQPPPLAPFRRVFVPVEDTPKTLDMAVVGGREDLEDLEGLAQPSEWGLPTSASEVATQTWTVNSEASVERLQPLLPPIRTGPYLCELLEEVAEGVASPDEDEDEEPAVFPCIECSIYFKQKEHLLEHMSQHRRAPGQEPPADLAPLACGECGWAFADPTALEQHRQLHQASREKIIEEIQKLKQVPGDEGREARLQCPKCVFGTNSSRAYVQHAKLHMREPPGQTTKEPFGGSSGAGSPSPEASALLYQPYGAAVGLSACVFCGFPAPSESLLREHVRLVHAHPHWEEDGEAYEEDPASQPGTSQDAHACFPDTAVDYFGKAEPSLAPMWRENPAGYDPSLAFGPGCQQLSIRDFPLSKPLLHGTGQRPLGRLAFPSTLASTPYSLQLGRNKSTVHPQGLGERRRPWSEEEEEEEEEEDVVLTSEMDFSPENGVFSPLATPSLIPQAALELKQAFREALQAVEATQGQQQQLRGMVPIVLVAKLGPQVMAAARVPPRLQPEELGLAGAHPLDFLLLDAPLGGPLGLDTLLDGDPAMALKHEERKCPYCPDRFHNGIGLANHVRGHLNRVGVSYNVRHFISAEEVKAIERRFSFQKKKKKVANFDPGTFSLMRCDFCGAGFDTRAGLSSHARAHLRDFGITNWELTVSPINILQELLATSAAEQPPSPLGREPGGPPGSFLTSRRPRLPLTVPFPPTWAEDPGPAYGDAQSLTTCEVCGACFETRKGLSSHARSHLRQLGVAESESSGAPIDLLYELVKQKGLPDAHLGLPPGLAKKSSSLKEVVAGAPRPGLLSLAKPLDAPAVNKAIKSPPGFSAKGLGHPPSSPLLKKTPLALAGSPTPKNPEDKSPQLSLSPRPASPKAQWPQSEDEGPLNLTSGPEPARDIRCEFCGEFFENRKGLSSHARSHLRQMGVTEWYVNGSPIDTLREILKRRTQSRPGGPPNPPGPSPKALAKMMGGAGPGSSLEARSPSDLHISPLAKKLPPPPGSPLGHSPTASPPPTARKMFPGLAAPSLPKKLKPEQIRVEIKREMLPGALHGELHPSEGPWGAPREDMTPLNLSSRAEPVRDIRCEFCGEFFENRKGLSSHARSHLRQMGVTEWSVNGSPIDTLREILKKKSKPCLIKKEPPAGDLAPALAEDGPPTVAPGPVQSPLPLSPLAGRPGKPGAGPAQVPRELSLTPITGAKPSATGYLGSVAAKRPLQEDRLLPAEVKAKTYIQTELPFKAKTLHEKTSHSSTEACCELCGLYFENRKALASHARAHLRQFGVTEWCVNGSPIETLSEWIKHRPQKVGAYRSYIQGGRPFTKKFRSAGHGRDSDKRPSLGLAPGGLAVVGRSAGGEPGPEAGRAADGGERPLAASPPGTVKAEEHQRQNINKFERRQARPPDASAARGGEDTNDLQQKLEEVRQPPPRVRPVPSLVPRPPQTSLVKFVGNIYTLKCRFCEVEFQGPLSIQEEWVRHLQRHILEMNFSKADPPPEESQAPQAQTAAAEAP
T1 sequence (Q96SW2 whole entry): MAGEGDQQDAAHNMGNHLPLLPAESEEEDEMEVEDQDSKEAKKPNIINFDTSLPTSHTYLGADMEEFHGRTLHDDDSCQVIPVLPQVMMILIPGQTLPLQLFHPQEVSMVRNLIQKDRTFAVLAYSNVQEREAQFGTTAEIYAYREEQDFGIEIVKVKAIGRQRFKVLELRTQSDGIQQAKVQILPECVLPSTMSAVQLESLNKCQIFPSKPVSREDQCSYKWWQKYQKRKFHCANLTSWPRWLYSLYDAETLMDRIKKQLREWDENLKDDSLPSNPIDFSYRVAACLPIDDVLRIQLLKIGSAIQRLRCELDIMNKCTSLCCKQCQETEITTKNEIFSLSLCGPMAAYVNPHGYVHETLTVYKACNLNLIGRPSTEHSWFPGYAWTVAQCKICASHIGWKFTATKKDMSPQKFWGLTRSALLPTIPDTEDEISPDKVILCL
T1 sequence (Q16531 whole entry partner): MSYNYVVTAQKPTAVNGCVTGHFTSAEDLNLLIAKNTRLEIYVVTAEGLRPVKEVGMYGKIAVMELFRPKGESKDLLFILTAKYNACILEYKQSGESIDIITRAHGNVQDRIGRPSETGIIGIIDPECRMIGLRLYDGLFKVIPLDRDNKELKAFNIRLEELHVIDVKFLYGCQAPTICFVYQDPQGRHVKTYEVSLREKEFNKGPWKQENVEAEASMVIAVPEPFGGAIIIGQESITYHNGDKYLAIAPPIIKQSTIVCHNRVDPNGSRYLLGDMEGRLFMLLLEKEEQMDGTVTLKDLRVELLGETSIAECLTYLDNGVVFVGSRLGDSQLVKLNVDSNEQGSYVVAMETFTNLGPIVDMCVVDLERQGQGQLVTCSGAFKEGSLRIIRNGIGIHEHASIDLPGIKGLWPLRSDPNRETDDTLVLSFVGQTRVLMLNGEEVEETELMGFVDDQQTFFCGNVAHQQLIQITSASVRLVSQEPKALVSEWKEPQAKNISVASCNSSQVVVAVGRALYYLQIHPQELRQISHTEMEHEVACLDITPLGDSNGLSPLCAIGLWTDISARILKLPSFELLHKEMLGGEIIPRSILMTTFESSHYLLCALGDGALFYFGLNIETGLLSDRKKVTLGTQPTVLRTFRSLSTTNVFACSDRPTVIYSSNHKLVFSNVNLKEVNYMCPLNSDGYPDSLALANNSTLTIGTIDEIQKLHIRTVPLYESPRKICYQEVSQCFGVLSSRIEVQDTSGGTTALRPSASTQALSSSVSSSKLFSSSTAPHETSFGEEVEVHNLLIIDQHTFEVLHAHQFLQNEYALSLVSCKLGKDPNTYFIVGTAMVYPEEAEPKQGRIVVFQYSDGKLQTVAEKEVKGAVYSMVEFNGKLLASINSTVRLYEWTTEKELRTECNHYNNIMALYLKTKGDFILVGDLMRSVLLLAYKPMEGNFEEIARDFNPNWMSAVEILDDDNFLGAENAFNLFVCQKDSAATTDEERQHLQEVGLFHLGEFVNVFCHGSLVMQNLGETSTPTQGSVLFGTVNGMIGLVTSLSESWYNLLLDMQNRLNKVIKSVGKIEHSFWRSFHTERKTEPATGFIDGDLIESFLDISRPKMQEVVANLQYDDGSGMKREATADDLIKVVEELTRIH

Structure (SMILES)	Dmax at 25 µM	remaining activity at 25 µM	DC50	% degradation of WIZ (100-Amax)	WIZ Amax
CS(=O)(=O)N1CC2CCC1CN2Cc1ccc2onc(N3CCC(=O)NC3=O)c2c1 (single isomer, unassigned) [Example 125, 1-(5-((5-(methylsulfonyl)-2,5-diazabicyclo[2.2.2]octan-2-yl)methyl)benzo[d]isoxazol-3-yl)dihydropyrimidine-2,4(1H,3H)-dione]	85%	15%	120 nM	–	–
O=C1CCN(c2noc3ccc(CN4CC5CCC4CN5CC4CCOCC4)cc23)C(=O)N1 (single isomer, unassigned) [Example 122, 1-(5-((5-((tetrahydro-2H-pyran-4-yl)methyl)-2,5-diazabicyclo[2.2.2]octan-2-yl)methyl)benzo[d]isoxazol-3-yl)dihydropyrimidine-2,4(1H,3H)-dione]	–	–	44 nM	91%	9%
O=C1CCN(c2noc3ccc(CN4CC5CCC4CN5CC4CCOCC4)cc23)C(=O)N1 (single isomer, unassigned) [Example 121, 1-(5-((5-((tetrahydro-2H-pyran-4-yl)methyl)-2,5-diazabicyclo[2.2.2]octan-2-yl)methyl)benzo[d]isoxazol-3-yl)dihydropyrimidine-2,4(1H,3H)-dione]	86%	14%	317 nM	–	–
CCN1CCN(Cc2ccc3onc(N4CCC(=O)NC4=O)c3c2)CC1 [Example 62, 1-(5-((4-ethylpiperazin-1-yl)methyl)benzo[d]isoxazol-3-yl)dihydropyrimidine-2,4(1H,3H)-dione]	89%	11%	24 nM	–	–
CC(C)S(=O)(=O)N1CCN(Cc2ccc3onc(N4CCC(=O)NC4=O)c3c2)CC1 [Example 84, 1-(5-((4-(isopropylsulfonyl)piperazin-1-yl)methyl)benzo[d]isoxazol-3-yl)dihydropyrimidine-2,4(1H,3H)-dione]	82%	18%	145 nM	–	–
CC(C)CN1CCN(Cc2ccc3onc(N4CCC(=O)NC4=O)c3c2)C[C@H]1C [Example 34, (R)-1-(5-((4-isobutyl-3-methylpiperazin-1-yl)methyl)benzo[d]isoxazol-3-yl)dihydropyrimidine-2,4(1H,3H)-dione]	89%	11%	40 nM	–	–
CN1CCC(Cc2ccc3onc(N4CCC(=O)NC4=O)c3c2)CC1 [Example 10, 1-(5-((1-methylpiperidin-4-yl)methyl)benzo[d]isoxazol-3-yl)dihydropyrimidine-2,4(1H,3H)-dione]	90%	10%	45 nM	–	–
CS(=O)(=O)N1C[C@H]2CC[C@@H](C1)N2Cc1ccc2onc(N3CCC(=O)NC3=O)c2c1 [Example 104, 1-(5-(((1R,5S)-3-(methylsulfonyl)-3,8-diazabicyclo[3.2.1]octan-8-yl)methyl)benzo[d]isoxazol-3-yl)dihydropyrimidine-2,4(1H,3H)-dione]	85%	15%	181 nM	–	–
Cc1c(CN2CCN(CC3CC3)[C@@H](C)C2)ccc2onc(N3CCC(=O)NC3=O)c12 [Example 130, (S)-1-(5-((4-(cyclopropylmethyl)-3-methylpiperazin-1-yl)methyl)-4-methylbenzo[d]isoxazol-3-yl)dihydropyrimidine-2,4(1H,3H)-dione]	86%	14%	6 nM	–	–
CC(C)S(=O)(=O)N1CCN(Cc2ccc3onc(N4CCC(=O)NC4=O)c3c2)[C@H](C)C1 [Example 73, (R)-1-(5-((4-(isopropylsulfonyl)-2-methylpiperazin-1-yl)methyl)benzo[d]isoxazol-3-yl)dihydropyrimidine-2,4(1H,3H)-dione]	83%	17%	110 nM	–	–
O=C1CCN(c2noc3ccc(CN4CCN5CCOC[C@H]5C4)cc23)C(=O)N1 [Example 110, (R)-1-(5-((hexahydropyrazino[2,1-c][1,4]oxazin-8(1H)-yl)methyl)benzo[d]isoxazol-3-yl)dihydropyrimidine-2,4(1H,3H)-dione]	85%	15%	65 nM	–	–
O=C1CCN(c2noc3ccc(CC4C[C@H]5CC[C@@H](C4)N5)cc23)C(=O)N1 (stereo partly drawn) [Example 57, 1-(5-(((1R,5S)-8-azabicyclo[3.2.1]octan-3-yl)methyl)benzo[d]isoxazol-3-yl)dihydropyrimidine-2,4(1H,3H)-dione]	–	–	649 nM	80%	20%
O=C1CCN(c2noc3ccc(CC4CCNC4)cc23)C(=O)N1 (stereo not drawn) [Example 48, 1-(5-(pyrrolidin-3-ylmethyl)benzo[d]isoxazol-3-yl)dihydropyrimidine-2,4(1H,3H)-dione]	77%	23%	1160 nM	–	–
CC(C)(C)OC(=O)N1[C@@H]2CC[C@H]1CC(Cc1ccc3onc(N4CCC(=O)NC4=O)c3c1)C2 (single isomer, unassigned) [Example 54]	–	–	196 nM	92%	8%
CC(C)CN1CCN(Cc2ccc3onc(N4CCC(=O)NC4=O)c3c2)C[C@@H]1C [Example 30, (S)-1-(5-((4-isobutyl-3-methylpiperazin-1-yl)methyl)benzo[d]isoxazol-3-yl)dihydropyrimidine-2,4(1H,3H)-dione]	91%	9%	4.5 nM	–	–
CN1CCC(Cc2ccc3onc(N4CCC(=O)NC4=O)c3c2)C1 (stereo not drawn) [Example 50, 1-(5-((1-methylpyrrolidin-3-yl)methyl)benzo[d]isoxazol-3-yl)dihydropyrimidine-2,4(1H,3H)-dione]	78%	22%	448 nM	–	–
C[C@@H]1CN(CC2CCOCC2)C[C@H](C)N1Cc1ccc2onc(N3CCC(=O)NC3=O)c2c1 [Example 109, 1-(5-(((2R,6S)-2,6-dimethyl-4-((tetrahydro-2H-pyran-4-yl)methyl)piperazin-1-yl)methyl)benzo[d]isoxazol-3-yl)dihydropyrimidine-2,4(1H,3H)-dione]	73%	27%	355 nM	–	–
O=C1CCN(c2noc3ccc(CC4CCN(Cc5ccccc5)CC4)cc23)C(=O)N1 [Example 9, 1-(5-((1-benzylpiperidin-4-yl)methyl)benzo[d]isoxazol-3-yl)dihydropyrimidine-2,4(1H,3H)-dione]	91%	9%	56 nM	–	–
O=C1CCN(c2noc3ccc(CN4[C@@H]5CC[C@H]4CNC5)cc23)C(=O)N1 [Example 102, 1-(5-(((1R,5S)-3,8-diazabicyclo[3.2.1]octan-8-yl)methyl)benzo[d]isoxazol-3-yl)dihydropyrimidine-2,4(1H,3H)-dione]	80%	20%	462 nM	–	–
CN1CCCC(Cc2ccc3onc(N4CCC(=O)NC4=O)c3c2)CC1 (stereo not drawn) [Example 53, 1-(5-((1-methylazepan-4-yl)methyl)benzo[d]isoxazol-3-yl)dihydropyrimidine-2,4(1H,3H)-dione]	87%	13%	4 nM	–	–
C[C@@H]1CN(C2CCOCC2)CCN1Cc1ccc2onc(N3CCC(=O)NC3=O)c2c1 [Example 78, (R)-1-(5-((2-methyl-4-(tetrahydro-2H-pyran-4-yl)piperazin-1-yl)methyl)benzo[d]isoxazol-3-yl)dihydropyrimidine-2,4(1H,3H)-dione]	80%	20%	37 nM	–	–
CC(C)[C@H]1CN(Cc2ccc3onc(N4CCC(=O)NC4=O)c3c2)CCN1CC1CCOCC1 [Example 38, (S)-1-(5-((3-isopropyl-4-((tetrahydro-2H-pyran-4-yl)methyl)piperazin-1-yl)methyl)benzo[d]isoxazol-3-yl)dihydropyrimidine-2,4(1H,3H)-dione]	76%	24%	140 nM	–	–
O=C1CCN(c2noc3ccc(CC4CCN(CC5CCCCC5)CC4)cc23)C(=O)N1 [Example 1, 1-(5-((1-(cyclohexylmethyl)piperidin-4-yl)methyl)benzo[d]isoxazol-3-yl)dihydropyrimidine-2,4(1H,3H)-dione]	91%	9%	7.2 nM	–	–
O=C1CCN(c2noc3ccc(CC4CCN(CC5CCCCC5)C4)cc23)C(=O)N1 (stereo not drawn) [Example 49, 1-(5-((1-(cyclohexylmethyl)pyrrolidin-3-yl)methyl)benzo[d]isoxazol-3-yl)dihydropyrimidine-2,4(1H,3H)-dione]	87%	13%	279 nM	–	–
C[C@@H]1CN(CC2CCOCC2)CCN1Cc1ccc2onc(N3CCC(=O)NC3=O)c2c1 [Example 67, (R)-1-(5-((2-methyl-4-((tetrahydro-2H-pyran-4-yl)methyl)piperazin-1-yl)methyl)benzo[d]isoxazol-3-yl)dihydropyrimidine-2,4(1H,3H)-dione]	89%	11%	9 nM	–	–
C[C@@H]1CN(CC(=O)N2CCCCC2)CCN1Cc1ccc2onc(N3CCC(=O)NC3=O)c2c1 [Example 70, (R)-1-(5-((2-methyl-4-(2-oxo-2-(piperidin-1-yl)ethyl)piperazin-1-yl)methyl)benzo[d]isoxazol-3-yl)dihydropyrimidine-2,4(1H,3H)-dione]	78%	22%	300 nM	–	–
